Key:
[1] = biological target: T1, Nuclear receptor subfamily 1 group I member 3 (Rattus norvegicus, UniProt Q9QUS1); assay: Activation of rat CAR expressed in rat hepatocytes coexpressing CYP2B1 at 60 uM after 24 hrs by dual luciferase reporter gene assay relative to phenobarbital; format: ADME, cell-based, Hepatocyte
T1 sequence (Q9QUS1 whole entry): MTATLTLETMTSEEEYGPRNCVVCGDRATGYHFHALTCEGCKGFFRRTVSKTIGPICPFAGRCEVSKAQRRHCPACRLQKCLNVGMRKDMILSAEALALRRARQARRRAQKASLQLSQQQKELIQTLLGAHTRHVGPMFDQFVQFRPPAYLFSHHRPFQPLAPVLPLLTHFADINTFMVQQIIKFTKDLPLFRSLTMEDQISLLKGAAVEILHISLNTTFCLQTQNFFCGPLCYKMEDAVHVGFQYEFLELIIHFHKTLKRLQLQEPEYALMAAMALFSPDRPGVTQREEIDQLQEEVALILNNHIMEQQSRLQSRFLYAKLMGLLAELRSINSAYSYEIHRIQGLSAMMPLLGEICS

[2] = biological target: T2, Nuclear receptor subfamily 1 group I member 2 (Homo sapiens, UniProt O75469); assay: Activation of PXR in human Hu1108 hepatocytes assessed as effect on CYP3A4 mRNA expression at 10 to 50 uM after 24 hrs by RT-PCR analysis; format: ADME, cell-based, Hepatocyte
T2 sequence (O75469 whole entry): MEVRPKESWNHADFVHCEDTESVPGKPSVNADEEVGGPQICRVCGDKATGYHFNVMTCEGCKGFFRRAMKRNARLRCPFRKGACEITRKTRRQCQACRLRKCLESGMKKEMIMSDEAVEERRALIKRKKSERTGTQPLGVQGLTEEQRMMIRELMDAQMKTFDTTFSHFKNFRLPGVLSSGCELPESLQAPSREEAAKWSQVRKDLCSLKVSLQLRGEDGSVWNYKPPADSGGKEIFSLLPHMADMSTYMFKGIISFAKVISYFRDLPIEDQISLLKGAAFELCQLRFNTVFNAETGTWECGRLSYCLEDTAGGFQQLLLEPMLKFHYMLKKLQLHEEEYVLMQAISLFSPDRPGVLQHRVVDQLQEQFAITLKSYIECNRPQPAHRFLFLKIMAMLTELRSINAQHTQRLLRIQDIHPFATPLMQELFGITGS

[3] = biological target: T1, Nuclear receptor subfamily 1 group I member 3; assay: Activation of rat CAR expressed in rat hepatocytes coexpressing CYP2B1 at 0.1 to 10 uM after 24 hrs by dual luciferase reporter gene assay; format: ADME, cell-based, Hepatocyte
[4] = biological target: T3, Nuclear receptor subfamily 1 group I member 3 (Homo sapiens, UniProt Q14994); assay: Activation of CAR in human Hu1043 hepatocytes assessed as effect on CYP2B6 mRNA expression at 10 to 60 uM after 24 hrs by RT-PCR analysis; format: ADME, cell-based, Hepatocyte
T3 sequence (Q14994 whole entry): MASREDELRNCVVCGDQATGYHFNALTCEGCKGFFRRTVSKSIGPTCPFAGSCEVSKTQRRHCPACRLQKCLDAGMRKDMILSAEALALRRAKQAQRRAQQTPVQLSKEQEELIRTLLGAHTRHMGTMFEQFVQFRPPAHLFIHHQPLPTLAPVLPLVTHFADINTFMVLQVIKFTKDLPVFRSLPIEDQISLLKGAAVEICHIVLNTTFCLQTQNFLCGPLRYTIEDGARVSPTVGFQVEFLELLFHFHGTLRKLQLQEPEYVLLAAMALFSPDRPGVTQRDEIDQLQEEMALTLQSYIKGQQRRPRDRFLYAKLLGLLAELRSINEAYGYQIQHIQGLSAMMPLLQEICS

[5] = biological target: T2, Nuclear receptor subfamily 1 group I member 2; assay: Activation of human PXR expressed in human HepG2 cells coexpressing CYP3A4 at 0.1 to 100 uM after 24 hrs by dual luciferase reporter gene assay; format: ADME, cell-based; settings: hepg2, 24 h
[6] = biological target: T1, Nuclear receptor subfamily 1 group I member 3; assay: Activation of CAR in rat hepatocytes assessed as upregulation of CYP2B1 mRNA expression at 3 uM after 24 hrs by RT-PCR analysis relative to phenobarbital; format: ADME, cell-based, Hepatocyte
[7] = biological target: T4, Nuclear receptor subfamily 1 group I member 2 (Rattus norvegicus, UniProt Q9R1A7); assay: Antagonist activity at rat PXR expressed in human HepG2 cells coexpressing CYP3A4 assessed as inhibition of PCN-induced receptor activation up to 100 uM after 24 hrs by dual luciferase reporter gene assay; format: ADME, cell-based; settings: hepg2, 24 h
T4 sequence (Q9R1A7 whole entry): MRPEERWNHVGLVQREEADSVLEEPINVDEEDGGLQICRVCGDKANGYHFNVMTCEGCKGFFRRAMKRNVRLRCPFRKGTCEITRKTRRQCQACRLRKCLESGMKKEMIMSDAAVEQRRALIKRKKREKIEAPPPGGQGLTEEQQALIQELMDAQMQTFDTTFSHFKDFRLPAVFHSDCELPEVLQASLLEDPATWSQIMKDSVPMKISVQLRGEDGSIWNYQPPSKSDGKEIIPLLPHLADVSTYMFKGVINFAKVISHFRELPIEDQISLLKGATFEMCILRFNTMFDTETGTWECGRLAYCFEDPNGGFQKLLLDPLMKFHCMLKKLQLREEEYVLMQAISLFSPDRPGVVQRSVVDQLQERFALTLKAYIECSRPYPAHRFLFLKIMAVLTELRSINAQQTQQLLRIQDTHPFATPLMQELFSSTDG

[8] = biological target: T3, Nuclear receptor subfamily 1 group I member 3; assay: Antagonist activity at human CAR expressed in human HepG2 cells coexpressing CYP2B6 assessed as inhibition of CITCO-induced receptor activation up to 100 uM after 24 hrs by dual luciferase reporter gene assay; format: ADME, cell-based; settings: hepg2, 24 h
[9] = biological target: T1, Nuclear receptor subfamily 1 group I member 3; assay: Activation of CAR in rat hepatocytes assessed as upregulation of CYP2B1 mRNA expression at 30 uM after 24 hrs by RT-PCR analysis relative to phenobarbital; format: ADME, cell-based, Hepatocyte
PXR mRNA = assay: Effect on PXR mRNA expression in rat hepatocytes at 3 uM by RT-PCR analysis relative to control; format: ADME, cell-based, Hepatocyte; settings: read-out: FC
[10] = biological target: T3, Nuclear receptor subfamily 1 group I member 3; assay: Activation of CAR in human Hu1043 hepatocytes assessed as increase in CYP2B6-mediated bupropion hydroxylation at 10 to 60 uM after 24 hrs by LC-MS analysis; format: ADME, cell-based, Hepatocyte
[11] = biological target: T1, Nuclear receptor subfamily 1 group I member 3; assay: Activation of rat CAR expressed in rat hepatocytes coexpressing CYP2B1 at 100 uM after 24 hrs by dual luciferase reporter gene assay relative to control; format: ADME, cell-based, Hepatocyte; settings: hepatocytes, 24 h, 100 µM
[12] = biological target: T4, Nuclear receptor subfamily 1 group I member 2; assay: Activation of rat PXR expressed in human HepG2 cells coexpressing CYP3A4 at 0.1 to 100 uM after 24 hrs by dual luciferase reporter gene assay; format: ADME, cell-based; settings: hepg2, 24 h
CAR mRNA = assay: Effect on CAR mRNA expression in rat hepatocytes at 30 uM by RT-PCR analysis relative to control; format: ADME, cell-based, Hepatocyte; settings: read-out: FC
[13] = biological target: T4, Nuclear receptor subfamily 1 group I member 2; assay: Activation of PXR in rat hepatocytes assessed as effect on CYP3A-mediated testosterone 6beta-hydroxylation at 1 to 30 uM after 24 hrs by HPLC analysis; format: ADME, cell-based, Hepatocyte
[14] = biological target: T3, Nuclear receptor subfamily 1 group I member 3; assay: Activation of CAR in human Hu1108 hepatocytes assessed as increase in CYP2B6-mediated bupropion hydroxylation at 10 to 50 uM after 24 hrs by LC-MS analysis; format: ADME, cell-based, Hepatocyte
[15] = biological target: T2, Nuclear receptor subfamily 1 group I member 2; assay: Activation of human PXR expressed in rat hepatocytes coexpressing CYP3A4 at 100 uM after 24 hrs by dual luciferase reporter gene assay; format: ADME, cell-based, Hepatocyte

CC(C)(C)[C@]1(O)C[C@@H]2OC(=O)C[C@@]23C(=O)O[C@@H]2OC(=O)[C@H](O)[C@]213
Activity [1]: 176% | Activity [2]: Not Active | Activity [3]: Not Active | Activity [4]: Not Active | Activity [5]: Not Active | Activity [6]: 6% | inhibition (INH) [7]: Not Active | inhibition (INH) [8]: Not Active | Activity [9]: 37% | fold induction at 3 µM (PXR mRNA): 1 | Activity [10]: Not Active | Activity [11]: Active | Activity [12]: Not Active | fold induction at 30 µM (CAR mRNA): 1 | Activity [13]: Not Active | Activity [14]: Not Active | Activity [15]: Not Active

Reference: ChEMBL document CHEMBL3526076, “Species-dependent and receptor-selective action of bilobalide on the function of constitutive androstane receptor and pregnane X receptor” (Drug Metab Dispos, 2012)
